Measurements taken from patent publication US12358918B2, “Aryl hydrocarbon receptor (AHR) activator compounds as cancer therapeutics” (THE BROAD INSTITUTE, INC., priority 2018, dated 2025).

System: ZR75, MDA-MB-468 and HCC1395 cell lines
Experiment: cytotoxicity of CGS-15943 analogs in sensitive and resistant cell lines
Format: cell-based
Settings: IC50 tables of FIGS. 8A to 8D
From the text: Biological replicates were averaged and normalized to vehicle control. Dose curves were generated using Graphpad Prism.

## Nc1nc2c(cnn2CCc2ccccc2)c2nc(-c3ccco3)nn12 [BRD-K81225797-001-02-3]
  killing of sensitive (ZR75, MDA-MB-468) versus resistant (HCC1395) cell lines: selective killing
